Measurements taken from patent publication EP2616456B1, “NUCLEAR EXPORT INHIBITORS” (Universitätsmedizin der Johannes Gutenberg-Universität Mainz, priority 2010, dated 2012).
“Also recorded” adds a separate entry of the source.

Legend:
HIV-1 Rev protein = test: Nuclear export of HIV-1 Rev-GFP in actinomycin D treated HeLa cells; type: cell-based; conditions: 25µM
Excerpt: The HIV-1 Rev protein transports unspliced and incompletely spliced viral RNAs from the nucleus into the cytoplasm (Stauber et al., 1995). As such, Rev's export function is crucial for viral replication and AIDS development (Pavlakis and Stauber, 1998; Stauber et al., 1995).

A431 = test: Cell viability (CellTiter-Glo) and cell death, A431; type: cell-based; conditions: for cell death induced by treatment: A431 (epidermoid carcinoma), 25µM; for viability compared to the control: A431, 100µM, 72h, CellTiter-Glo
Procedure: To test the anti-cancer activity of the compounds, several cancer cell lines, currently used as models for different epithelial cancers and leukemias, were treated with the indicated inhibitors. […] Every 24h, the cell culture medium was replaced by fresh compound-containing medium. 72h post treatment, cell were analyzed by adding 100µl CellTiter-Glo® assay reagent (Promega). Luminescence was measured with a LuminoskanAscent device (ThermoScientific). Cells treated with a corresponding amount of DMSO only were use as a control. The luminescence (equals cell viability) of said control was set to 100%.

KASUMI-1 = test: Cell death, KASUMI-1; type: cell-based; conditions: KASUMI-1 (acute myeloid leukemia, AML), 25µM
[1] = In vivo toxicity in nude mice; conditions: male NMRI nu/nu mice, i.p. three times every second day, 200µl 1mM
Procedure: To investigate whether the nuclear export inhibitors cause toxic effects in vivo, six-week-old male NMRI nu/nu mice were injected three times intraperitoneally (i.p.) every second day with 200µl 1mM C3 or C5 (5 mice each), or with 200µl DMSO only (control, 2 mice).

human CRM1 (Crm1-HA) = human CRM1 (Crm1-HA) (Homo sapiens, UniProt O14980); test: In vitro pull-down of Crm1-HA with GST-SurvivinNES-GFP beads; type: binding; conditions: preincubation 1mM, 30min at 4°C
Procedure: The binding of LMB and of compounds C3 and C5 to CRM1 was examined by in vitro pull-down assays as described by Stauber et al., 2006. Briefly, in vitro coupled transcription/translation was performed using the TNT reticulocyte lysate system (Promega, Madison, WI, USA) supplemented with methionine (Promega, Madison, WI, USA) and plasmid pCrm1_HA (1µg), encoding a hemagglutinin epitope-tagged version of human CRM1 (Crm1-HA), as the template. Equal amounts of the Crm1-HA TNT reaction were preincubated with either DMSO (negative control; 0.1%), LMB (400nM, final concentration), C3 (1 mM; final concentration) or C5 (1mM; final concentration) in binding-buffer containing 5mM MgCl2 (AppliChem, Darmstadt, Germany), 2mM GTP (PEQLAB, Erlangen, Germany), 50mM Hepes pH 7.9 (AppliChem, Darmstadt, Germany), 200mM KCI (AppliChem, Darmstadt, Germany), 0.4% Tween 20 (AppliChem, Darmstadt, Germany), supplemented with complete protease inhibitor cocktail (Roche, Mannheim, Germany) for 30min at 4°C. Subsequently, GST-Sepharose beads loaded with 25µg recombinant GST-SurvivinNES-GFP and 5µg GST-RanQ96L were added to each drug-treated TNT reaction. Recombinant GST-SurvivinNES-GFP and GST-RanQ96L were purified from bacteria as described by Stauber et al., 2006. Pull-down was performed for 4h at 4°C in a rotating wheel. Samples were then centrifuged (3500rpm, 1min, 4°C) to recover the GST-SurvivinNES-GFP beads with bound Crm1-HA. Beads were washed three times with binding-buffer (500µl each washing step, 3500rpm, 1min, 4°C). Finally, bound proteins were eluted by adding 25µl 2xSDS-sample buffer (250mM Tris-HCl pH 6.8; 2% w/v SDS, 20% glycerol, 2% β-mercaptoethanol, 0.002% w/v bromophenol blue) and incubating at 95°C for 2min. Samples were separated by SDS-gelelectrophoresis and analyzed by immunoblot analysis as described by Stauber et al., 2006. Crm1-HA was detected with HA specific antibodies (MMS-101R, Covance, New Jersey, USA). GFP served as the loading control and was visualized with GFP specific antibodies (sc-8334, Santa Cruz Biotechnology, Heidelberg, Germany).

Survivin = test: Nuclear export of Survivin-GFP fusion stably expressed in A431 cells; type: cell-based; conditions: A431, stable expression, 25µM
Excerpt: Nuclear export of Survivin is crucial for its tumor promoting cytoprotective activity (Engels et al., 2007; Knauer et al., 2007a; Knauer et al., 2007b).

Chain of human CRM1 (Crm1-HA) (O14980 whole entry): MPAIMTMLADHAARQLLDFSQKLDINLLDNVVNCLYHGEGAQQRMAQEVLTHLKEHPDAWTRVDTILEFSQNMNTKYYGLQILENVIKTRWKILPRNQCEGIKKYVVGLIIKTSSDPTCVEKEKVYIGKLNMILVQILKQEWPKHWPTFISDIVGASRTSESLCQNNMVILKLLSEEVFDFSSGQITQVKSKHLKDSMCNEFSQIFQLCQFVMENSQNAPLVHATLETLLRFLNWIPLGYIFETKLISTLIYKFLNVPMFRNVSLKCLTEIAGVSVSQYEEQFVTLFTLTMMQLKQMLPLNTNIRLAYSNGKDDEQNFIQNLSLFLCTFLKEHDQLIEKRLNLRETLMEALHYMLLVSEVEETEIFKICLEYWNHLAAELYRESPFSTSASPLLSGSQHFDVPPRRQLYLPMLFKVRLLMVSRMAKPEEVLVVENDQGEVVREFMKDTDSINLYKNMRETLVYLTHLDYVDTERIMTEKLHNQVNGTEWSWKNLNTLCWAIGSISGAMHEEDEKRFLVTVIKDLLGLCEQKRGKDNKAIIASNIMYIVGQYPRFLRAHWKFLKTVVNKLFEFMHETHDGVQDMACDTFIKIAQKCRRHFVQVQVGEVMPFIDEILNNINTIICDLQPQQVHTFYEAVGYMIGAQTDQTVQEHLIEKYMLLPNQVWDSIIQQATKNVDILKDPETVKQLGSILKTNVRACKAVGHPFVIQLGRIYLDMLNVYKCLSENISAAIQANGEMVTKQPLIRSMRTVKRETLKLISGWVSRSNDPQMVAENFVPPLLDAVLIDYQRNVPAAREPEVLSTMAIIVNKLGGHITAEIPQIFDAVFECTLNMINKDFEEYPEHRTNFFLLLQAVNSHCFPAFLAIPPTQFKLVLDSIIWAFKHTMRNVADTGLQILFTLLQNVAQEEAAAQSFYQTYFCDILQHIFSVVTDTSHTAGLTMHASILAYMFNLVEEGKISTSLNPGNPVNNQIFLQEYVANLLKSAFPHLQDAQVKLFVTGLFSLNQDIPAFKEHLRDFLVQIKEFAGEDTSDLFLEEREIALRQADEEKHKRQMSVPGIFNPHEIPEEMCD

**Q.** With NC(=O)c1c(NC(NC(=O)c2ccccc2F)(C(F)(F)F)C(F)(F)F)sc2c1CCCC2 [Compound C3, 2-[[1,1,1,3,3,3-hexafluoro-2-[(2-fluorobenzoyl)amino]propan-2-yl]amino]-4,5,6,7-tetrahydro-1-benzothiophene-3-carboxamide] as the compound, how does the “Localization of HIV-1 Rev-GFP (nuclear export of HIV-1 Rev protein)” value (HIV-1 Rev protein) read?
**A.** inhibited; also recorded: restored the nuclear accumulation

**Q.** What about the “cell death induced by treatment” value (A431) of the same compound?
**A.** cell death

**Q.** What about the “viability compared to the control” value (A431) of the same compound?
**A.** significantly reduced viability

**Q.** And the “cell death induced by treatment” value (KASUMI-1)?
**A.** cell death

**Q.** And the “other signs of in vivo toxicity” value [1]?
**A.** no significant weight loss (see Figure 5) or other signs of in vivo toxicity were observed

**Q.** What about the “weight loss compared to the DMSO control” value [1] of the same compound?
**A.** no significant weight loss

**Q.** And the “interaction of Crm1-HA with the export substrate GST-SurvivinNES-GFP” value (human CRM1 (Crm1-HA))?
**A.** did not affected the CRM1 binding

**Q.** For O=C(NC1CS(=O)(=O)CC1Cl)c1cccc(C(F)(F)F)c1 (stereo not drawn) [Compound C5, N-(4-chloro-1,1-dioxothiolan-3-yl)-3-(trifluoromethyl)benzamide], which “Localization of Survivin-GFP fusion (nuclear export of Survivin)” value (Survivin) is on record?
**A.** nuclear accumulation

**Q.** And the “Localization of HIV-1 Rev-GFP (nuclear export of HIV-1 Rev protein)” value (HIV-1 Rev protein)?
**A.** inhibited; also recorded: restored the nuclear accumulation

**Q.** And the “cell death induced by treatment” value (A431)?
**A.** cell death

**Q.** And the “viability compared to the control” value (A431)?
**A.** significantly reduced viability

**Q.** What about the “cell death induced by treatment” value (KASUMI-1) of the same compound?
**A.** cell death

**Q.** What about the “other signs of in vivo toxicity” value [1] of the same compound?
**A.** no significant weight loss (see Figure 5) or other signs of in vivo toxicity were observed

**Q.** And the “weight loss compared to the DMSO control” value [1]?
**A.** no significant weight loss

**Q.** What about the “interaction of Crm1-HA with the export substrate GST-SurvivinNES-GFP” value (human CRM1 (Crm1-HA)) of the same compound?
**A.** did not affected the CRM1 binding
